The values below come from publication PMC11084659, “The Development of CDC25A-Derived Phosphoseryl Peptides That Bind 14-3-3ε with High Affinities” (International Journal of Molecular Sciences, 2024).

In general, IC50 refers to the point on the concentration scale where inhibition reaches its midpoint.

Where a SMILES comes first, the peptide text is derived from it. [ ]: non-standard residue; d: D form. pS = N[C@@H](COP(=O)(O)O)C(=O)O

Assay [1] addresses T1, 14-3-3ε (Homo sapiens, UniProt P62258).
T1 construct: purchased Novus Biologicals
T1 sequence (P62258 1-255): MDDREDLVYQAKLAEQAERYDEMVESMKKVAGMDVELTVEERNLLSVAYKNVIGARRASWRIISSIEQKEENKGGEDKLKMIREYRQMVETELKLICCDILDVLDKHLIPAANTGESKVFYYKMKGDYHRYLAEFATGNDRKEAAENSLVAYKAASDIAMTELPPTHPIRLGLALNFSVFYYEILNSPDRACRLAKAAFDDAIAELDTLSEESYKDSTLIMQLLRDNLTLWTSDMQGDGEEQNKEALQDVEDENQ
Nature of the assay: Differential scanning fluorimetry (DSF), melting temperature shift of 14-3-3ε. In kind it is binding. The following applies: 30 μM peptide, 2 µM 14-3-3ε, SYPRO-orange, 20 mM TRIS, 150 mM NaCl, 1 mM DTT, pH 7.4, average ± SD of n ≥ 5. As to the method: (§1) The binding of the peptides to 14-3-3ε was further assessed using differential scanning fluorometry (DSF) and surface plasmon resonance (SPR) measurements. DSF was used to determine the effects of the peptides on the melting temperature (Tm) of 14-3-3ε (Table 4, Figure 6 and Figure S4). The pS peptide caused an increase in melting temperature (ΔTm) of 0.35 ± 0.16 °C, while pS(174–182) induced no ΔTm. The Phe and Tyr substitutions in position 176 led to ΔTm of 1.08 ± 0.34 °C and 1.10 ± 0.32 °C, respectively. Lys, Phe, and Tyr substitutions in position 179 led to ΔTm of between 0.00 and 0.23 °C (Table 4). To quantitatively determine the affinity of the peptides for 14-3-3ε protein using SPR, His-tagged protein was immobilized on a nitrilotriacetic acid (Ni-NTA) sensor chip, and then binding of the peptides analogs to the protein was determined.
Thermal unfolding of 14-3-3ε (2 µM) and its complex with peptides (30 μM) was monitored in the presence of a hydrophobic protein-binding dye, SYPRO-orange (Invitrogen, Carlsbad, CA, USA), using the BioRad CFX384 Touchreal-time PCR (Hercules, CA, USA). The assays were performed in 20 mM TRIS, 150 mM NaCl, 1 mM DTT, and pH 7.4 buffer. The first derivative of the melting curves was plotted using GraphPad Prism software, version 10.0.3 to determine Tm of the protein. ΔTm was determined as the difference between Tm of 14-3-3ε in the presence of a peptide and Tm of 14-3-3ε alone.
(In general: DSF heats the sample and reads unfolding from a dye or from intrinsic fluorescence.)

Assay [2] has as its target T1, 14-3-3ε. Nature of the assay: Surface plasmon resonance (SPR), steady-state affinity on immobilized His6-14-3-3ε. In kind it is binding. As to the method:
as §1
The SPR analyses were carried out using the Biacore 8K surface plasmon resonance instrument (Cytiva, Marlborough, MA, USA). A total of 100 nM His6-14-3-3ε was immobilized on the NiCl2-activated NTA chip (Cytiva, Marlborough, MA, USA) as previously described. Then, different concentrations of peptide in the range of 0−500 μM (depending on the peptide) were injected. The experiments were performed in 20 mM TRIS, 150 mM NaCl, 50 μM EDTA, 0.005% Tween 20, and pH 7.4 buffer. The affinities of the peptides binding to 14-3-3ε were determined by fitting the data to a steady-state binding model using Biacore Insight Evaluation Software (version 5.0.18.22102).
Background: In SPR one partner is held on a chip, and binding of the other changes the refractive index at the surface.

The test system of the next assay is cSCC cells. The following applies: read-out: IC50, death of cSCC cells; cited from earlier work.

Take `CC(=O)N[C@@H](CCC(N)=O)C(=O)N[C@@H](CCCNC(=N)N)C(=O)N[C@@H](CCC(N)=O)C(=O)N[C@@H](CC(N)=O)C(=O)N[C@@H](COP(=O)(O)O)C(=O)N[C@@H](Cc1ccc(O)cc1)C(=O)N1CCC[C@H]1C(=O)N[C@@H](C)C(=O)N[C@@H](CCCNC(=N)N)C(N)=O` [[Tyr^179]pS(174–182)] (Ac-QRQN[pS]YPAR-NH2): the “ΔTm (melting temperature shift of 14-3-3ε)” value at 14-3-3ε [1] came to 0 °C. In addition, the “ΔG ± SD (free energy of binding derived from KD)” value at 14-3-3ε [2] was -5.37 ± 0.0932 kcal/mol.
In the case of `CC(=O)N[C@@H](CCC(N)=O)C(=O)N[C@@H](CCCNC(=N)N)C(=O)N[C@@H](Cc1ccc(O)cc1)C(=O)N[C@@H](CC(N)=O)C(=O)N[C@@H](COP(=O)(O)O)C(=O)N[C@@H](C)C(=O)N1CCC[C@H]1C(=O)N[C@@H](C)C(=O)N[C@@H](CCCNC(=N)N)C(N)=O` [[Tyr^176]pS(174–182)] (Ac-QRYN[pS]APAR-NH2), the “ΔTm (melting temperature shift of 14-3-3ε)” value on 14-3-3ε [1] was determined as 1.10 ± 0.32 °C. The “ΔG ± SD (free energy of binding derived from KD)” value at 14-3-3ε [2] is -8.786 ± 0.11 kcal/mol.
In the case of `CSCC[C@H](NC(=O)[C@H](CCCNC(=N)N)NC(=O)[C@H](C)NC(=O)[C@@H]1CCCN1C(=O)[C@H](C)NC(=O)[C@H](COP(=O)(O)O)NC(=O)[C@H](CC(N)=O)NC(=O)[C@H](CCC(N)=O)NC(=O)[C@H](CCCNC(=N)N)NC(=O)[C@H](CCC(N)=O)NC(=O)[C@@H](NC(C)=O)[C@@H](C)O)C(=O)N[C@@H](CC(C)C)C(=O)N[C@@H](CO)C(=O)N[C@@H](CO)C(N)=O` [pS] (Ac-TQRQN[pS]APARMLSS-NH2), the “ΔTm (melting temperature shift of 14-3-3ε)” value at 14-3-3ε [1] worked out at 0.35 ± 0.16 °C. The “ΔG ± SD (free energy of binding derived from KD)” value on 14-3-3ε [2] was -9.073 ± 0.022 kcal/mol. Moreover, the 50% inhibitory concentration (IC50) in the assay with cSCC cells was 29 µM.
Take `CC(=O)N[C@@H](CCC(N)=O)C(=O)N[C@@H](CCCNC(=N)N)C(=O)N[C@@H](CCC(N)=O)C(=O)N[C@@H](CCCCN)C(=O)N[C@@H](COP(=O)(O)O)C(=O)N[C@@H](C)C(=O)N1CCC[C@H]1C(=O)N[C@@H](C)C(=O)N[C@@H](CCCNC(=N)N)C(N)=O` [[Lys^177]pS(174–182)] (Ac-QRQK[pS]APAR-NH2): at 14-3-3ε [1], the “ΔTm (melting temperature shift of 14-3-3ε)” value amounted to 0.23 ± 0.09 °C. Moreover, the “ΔG ± SD (free energy of binding derived from KD)” value at 14-3-3ε [2] was -7.199 ± 0.055 kcal/mol.
For the compound `CC(=O)N[C@@H](CCC(N)=O)C(=O)N[C@@H](CCCNC(=N)N)C(=O)N[C@@H](Cc1ccccc1)C(=O)N[C@@H](CC(N)=O)C(=O)N[C@@H](COP(=O)(O)O)C(=O)N[C@@H](C)C(=O)N1CCC[C@H]1C(=O)N[C@@H](C)C(=O)N[C@@H](CCCNC(=N)N)C(N)=O` [[Phe^176]pS(174–182)] (Ac-QRFN[pS]APAR-NH2), the “ΔTm (melting temperature shift of 14-3-3ε)” value on 14-3-3ε [1] came out at 1.08 ± 0.34 °C.
`CC(=O)N[C@@H](CCC(N)=O)C(=O)N[C@@H](CCCNC(=N)N)C(=O)N[C@@H](CCC(N)=O)C(=O)N[C@@H](CC(N)=O)C(=O)N[C@@H](COP(=O)(O)O)C(=O)N[C@@H](Cc1ccccc1)C(=O)N1CCC[C@H]1C(=O)N[C@@H](C)C(=O)N[C@@H](CCCNC(=N)N)C(N)=O` [[Phe^179]pS(174–182)] (Ac-QRQN[pS]FPAR-NH2): the “ΔTm (melting temperature shift of 14-3-3ε)” value at 14-3-3ε [1] stood at 0 °C. For the same compound, at 14-3-3ε [2], the “ΔG ± SD (free energy of binding derived from KD)” value was -5.772 ± 0.048 kcal/mol.
Regarding `CC(=O)N[C@@H](CCC(N)=O)C(=O)N[C@@H](CCCNC(=N)N)C(=O)N[C@@H](CCC(N)=O)C(=O)N[C@@H](CC(N)=O)C(=O)N[C@@H](COP(=O)(O)O)C(=O)N[C@@H](C)C(=O)N1CCC[C@H]1C(=O)N[C@@H](C)C(=O)N[C@@H](CCCNC(=N)N)C(N)=O` [pS(174–182)] (Ac-QRQN[pS]APAR-NH2), the “ΔG ± SD (free energy of binding derived from KD)” value at 14-3-3ε [2] is -6.874 ± 0.055 kcal/mol.
